Data on four compounds can be found in patent publication US20080132529A1, “Method of improving bioavailability for non-sedating barbiturates” (priority 2006, published 2008).

Where “and” joins values, the source holds several entries; their conditions need not be identical. Identical values can stand only once.

The nature of series [1]: Early pharmacokinetic studies in dogs, high fat meal vs customary dog food. The series is classed as in vivo.
Series [2] is described as follows: Phase I food-effect crossover pharmacokinetic study, single 400 mg oral dose of T2000 (DMMDPB), fasting vs fed. The note with it: for Rate and extent of absorption when administered after a high fat, high calorie breakfast: fed vs fasting; for Rate and extent of absorption when administered after a high fat, high calorie breakfast / AUC(0-inf) / Cmax / half-life / Tmax / AUC0-t Ratio (Fasting/Fed) / T1/2 Ratio (Fasting/Fed) / Tmax Ratio (Fasting/Fed) / Cmax Ratio (Fasting/Fed) / AUC0-∞ Ratio (Fasting/Fed): single 400 mg oral dose of DMMDPB; for AUC(0-t) / AUC(0-inf) / Cmax / half-life / Tmax: male, human, plasma, po, 400 mg; for AUC(0-t): AUC0-t, plasma analyte after single 400 mg oral dose of DMMDPB; for AUC(0-t) / Cmax / Tmax / AUC0-t Ratio (Fasting/Fed) / Cmax Ratio (Fasting/Fed): n=23; for AUC(0-t) / AUC(0-inf): least-squares geometric mean; for AUC(0-inf): AUC0-∞; for AUC(0-inf) / half-life / AUC0-∞ Ratio (Fasting/Fed): n=18 for DMMDPB, n=20 for MMMDPB; for half-life / Tmax: arithmetic mean; for AUC0-t Ratio (Fasting/Fed): ratio fasting/fed of geometric means. How it is done:
This was a single center, randomized, single dose, open-label, 2-way, food-effect crossover study to compare the rate and extent of absorption of T2000, administered as 4×100 mg capsules (for a total dose of 400 mg), under fasting and fed conditions. Subjects were confined to a clinical research facility from at least 11 hours prior to drug administration until after the 72.0-hour post-dose blood draw, in each period. Single oral doses were separated by a washout period of at least 21 days.
All subjects met the inclusion and exclusion criteria described in the protocol and were judged eligible for the study, based on medical history, demographic data (including sex, age, body weight [kg], height [cm], and BMI [kg/m2], medication history, physical examination, vital signs (blood pressure, respiratory rate, heart rate, and oral temperature), 12-lead ECG, brief neurological examination (including assessment of mental status, orientation, memory, arithmetic and spelling, eye movement, gait and coordination), opthalmology examination (lamp examination; performed within 3 months prior to the first dose), and clinical laboratory tests (hematology, biochemistry, urinalysis, HIV and hepatitis C [HCV] antibodies, and hepatitis B antigen [HBsAg]). […] Screening procedures took place within 28 days prior to Period 1 drug administration.
Subjects abstained from food or drink containing xanthine derivatives or xanthine-related compounds (e.g. coffee, tea, caffeine-containing sodas, colas, chocolate, or decaffeinated products) and energy drinks from 48 hours prior to drug administration, until the end of sample collection in each period; alcohol from 24 hours prior to drug administration, until the end of sample collection in each period, and grapefruit products (e.g. fresh, canned, or frozen); natural food supplements (including garlic as a supplement), and vitamins from 7 days prior to drug administration, until the end of sample collection in each period. Any subjects who felt dizzy or drowsy when they left the clinical facility were advised against performing activities requiring mental alertness, judgment, and physical coordination until they felt safe to do so.
Treatment A: The subjects fasted for at least 10 hours prior to drug administration.
Treatment B: After a supervised overnight fast of at least 10 hours, and 30 minutes before drug administration, subjects were served a standard high-fat, high-caloric breakfast of approximately 1000 calories (approximately 150 calories from protein, 250 calories from carbohydrates, and […]). […] Subjects were required to completely consume this breakfast within 30 minutes, and prior to drug administration. Subjects were dosed on the momrings of Apr. […] Subjects were administered the test or reference medication as a single oral dose of 4 capsules, each containing 100 mg of prodrug T2000 (total dose of 400 mg), with approximately 240 ml of water. Subjects were dosed as specified in the protocol, and subsequently fasted for a period of at least 4 hours. A mouth and hand check was performed to ensure the subjects had swallowed the study medication.
All blood samples were drawn into blood collection tubes (1×7 ml) containing EDTA K3 prior to drug administration and 0.500, 1.00, 2.00, 3.00, 4.00, 5.00, 6.00, 8.00, 10.0, 12.0, 15.0, 18.0, 24.0, 36.0, 48.0, 72.0, 96.0, and 120 hours post-dose in each period. All blood samples were collected via direct venipuncture.
Analysis of T-2000, MMMDPB and DPB were performed using High Performance Liquid Chromatographic Method with Tandem Mass. Spectrometry Detection. The analytical method was developed and validated.

Series [3] concerns electroshock and chemoconvulsive seizures. The note with it: animal studies; at doses which exhibited no neurological impairment; cited from earlier work.
For series [4] the following is noted: in vivo; cited from earlier work.
The mark [5] stands for this setting: Fed (high-fat breakfast 30 min before dose).

Turning to `COCN1C(=O)N(COC)C(=O)C(c2ccccc2)(c2ccccc2)C1=O` [DMMDPB, 1,3-dimethoxymethyl-5,5-diphenyl barbituric acid], the “Absorption with a high fat meal compared with customary dog food” value in series [1] was “more completely absorbed”. Besides, in series [2], the “Rate and extent of absorption when administered after a high fat, high calorie breakfast” value (shortened to “Rate and extent of absorption”) is “increased”; the “AUC0-t Ratio (Fasting/Fed)” value is 35.6% and 35.57%; the “T1/2 Ratio (Fasting/Fed)” value is reported as 141.55%; the “Tmax Ratio (Fasting/Fed)” value amounted to 154.34%. Besides, in series [2], the “Cmax Ratio (Fasting/Fed)” value was 14.6% and 14.58%; the “AUC0-∞ Ratio (Fasting/Fed)” value amounted to 49.46%. The AUC(0-t) in series [2] (Fasting, healthy subjects) worked out at 3100 ng·h/mL. This compound also showed an AUC(0-t) in series [2] (setting [5]) of 8710 ng·h/mL. Also, in series [2] (Fasting), the AUC(0-inf) is 5320 ng·h/mL, the Cmax came to 129 ng/mL and the Tmax was determined as 7.52 h. In series [2] (Fed), the AUC(0-inf) turned out to be 10800 ng·h/mL, the Cmax was 887 ng/mL and the Tmax came to 4.88 h. This compound had a half-life in series [2] (T1/2, Fasting) of 26.1 h. This compound had a half-life in series [2] (T1/2, Fed) of 18.5 h. In series [2] (minor, occurred in both fed and fasting conditions, 23 subjects, single 400 mg oral doses), the “Adverse events reported (total)” value stood at 35. For the same compound, in series [2] (single 400 mg oral dose, fed and fasting, healthy males), the Tolerability entry is on record as “well tolerated”. In addition, in series [3], the “Anticonvulsant activity against electroshock and chemoconvulsive seizures” value is given as “anticonvulsant properties”.

With `O=C1NC(=O)C(c2ccccc2)(c2ccccc2)C(=O)N1` [DPB, 5,5-diphenyl barbituric acid], in series [2], the “Rate and extent of absorption” value is “increased”; the “AUC0-t Ratio (Fasting/Fed)” value was 65.3% and 65.28%; the “T1/2 Ratio (Fasting/Fed)” value is 111.62%; the “Tmax Ratio (Fasting/Fed)” value worked out at 113.50%. Moreover, in series [2], the “Cmax Ratio (Fasting/Fed)” value is 62.9% and 62.93%; the “AUC0-∞ Ratio (Fasting/Fed)” value is recorded as 68.04%. In series [2] (Fasting, healthy subjects), the AUC(0-t) is 143000 ng·h/mL. The same compound gave an AUC(0-t) in series [2] (setting [5]) of 219000 ng·h/mL. Further, in series [2] (Fasting), the AUC(0-inf) worked out at 185000 ng·h/mL, the Cmax worked out at 1750 ng/mL and the Tmax amounted to 54.8 h. In series [2] (Fed), the AUC(0-inf) came out at 271000 ng·h/mL, the Cmax turned out to be 2790 ng/mL and the Tmax came out at 48.3 h. This compound also showed a half-life in series [2] (T1/2, Fasting) of 43 h. Further, the half-life in series [2] (T1/2, Fed) is 38.5 h. For the same compound, in series [3], the “Anticonvulsant activity against electroshock and chemoconvulsive seizures” value is listed as “anticonvulsant properties”.

Take `COCN1C(=O)NC(=O)C(c2ccccc2)(c2ccccc2)C1=O` [MMMDPB, monomethoxymethyl-5,5-diphenyl barbituric acid]: in series [2], the “Rate and extent of absorption” value is “increased”; the “AUC0-t Ratio (Fasting/Fed)” value was 36.6% and 36.56%; the “T1/2 Ratio (Fasting/Fed)” value is listed as 165.33%; the “Tmax Ratio (Fasting/Fed)” value was found to be 229.02%. For the same compound, in series [2], the “Cmax Ratio (Fasting/Fed)” value was 31.9% and 31.86%; the “AUC0-∞ Ratio (Fasting/Fed)” value turned out to be 44.86%. In series [2] (Fasting, healthy subjects), this compound returned an AUC(0-t) of 36400 ng·h/mL. Besides, the AUC(0-t) in series [2] (setting [5]) worked out at 99500 ng·h/mL. In series [2] (Fasting), the AUC(0-inf) worked out at 54000 ng·h/mL, the Cmax came out at 898 ng/mL and the Tmax is 20.2 h. In addition, in series [2] (Fed), the AUC(0-inf) was 120000 ng·h/mL, the Cmax was found to be 2820 ng/mL and the Tmax was found to be 8.83 h. This compound showed a half-life in series [2] (T1/2, Fasting) of 26.8 h. For the same compound, the half-life in series [2] (T1/2, Fed) was 16.2 h.

Regarding `CCC1(c2ccccc2)C(=O)NC(=O)NC1=O` [phenobarbital], the “Serum and brain levels on administration with food” value in series [4] is “significantly decreased”.

As usually defined, the half-life is the time needed for the level to fall by half in the phase considered. Read a low half-life as fast loss.
